“And” between values parts separate entries of the source, which are not always exact repeats. Equal values may be shown once.
Test system: CD2F1 mice, P1798 lymphosarcoma sc, tumor weight T/C
Test: NCI In Vivo Anticancer Drug Screen. Data for tumor model P1798 Lymphosarcoma (subcutaneous) in CD2F1 (CDF1) mice
Settings: endpoint: mean tumor weight, higher = larger tumour
Procedure: The antitumor activity of compounds was measured in mice bearing transplantable tumors. Survival or tumor size were measured and the results are expressed as the measurement made in the treated group (T) divided by the measurement made in the vehicle treated control group (C). The tumor model used in this assay is P1798 Lymphosarcoma (subcutaneous) in CD2F1 (CDF1) mice

[1] = dose: 100.0 mg/kg/injection, schedule: Q01DX010 (ip), vehicle: saline
[2] = dose: 200.0 mg/kg/injection, schedule: Q01DX010 (ip), vehicle: saline
[3] = dose: 400.0 mg/kg/injection, schedule: Q01DX010 (ip), vehicle: saline
[4] = dose: 5.0 mg/kg/injection, schedule: Q01DX010 (ip), vehicle: saline
[5] = dose: 10.0 mg/kg/injection, schedule: Q01DX010 (ip), vehicle: saline
[6] = dose: 25.0 mg/kg/injection, schedule: Q01DX010 (sc), vehicle: steriod suspending solution
[7] = dose: 50.0 mg/kg/injection, schedule: Q01DX010 (ip), vehicle: saline

SMILES: CS(=O)(=O)OCCN(CCOS(C)(=O)=O)c1ccc(N=O)cc1
- T/C (dose: 0.25 mg/kg/injection, schedule: Q01DX010 (ip), vehicle: saline): 92 % of control
- T/C (dose: 1.0 mg/kg/injection, schedule: Q01DX010 (ip), vehicle: saline): 69 % of control

SMILES: Cc1cn(C2OC(CO)C(O)C2O)c(=O)[nH]c1=O (stereo not drawn)
- T/C (dose: 62.5 mg/kg/injection, schedule: Q01DX010 (ip), vehicle: saline): 97 % of control
- T/C [1]: 67 % of control
- T/C (dose: 125.0 mg/kg/injection, schedule: Q01DX010 (ip), vehicle: saline): 96 % of control
- T/C [2]: 80 % of control
- T/C (dose: 250.0 mg/kg/injection, schedule: Q01DX010 (ip), vehicle: saline): 72 % of control
- T/C [3]: 85 % of control
- T/C (dose: 500.0 mg/kg/injection, schedule: Q01DX010 (ip), vehicle: saline): 69 % of control
- T/C (dose: 800.0 mg/kg/injection, schedule: Q01DX010 (ip), vehicle: saline): 75 % of control

SMILES: CS(=O)(=O)OCCCl
- T/C (dose: 9.4 mg/kg/injection, schedule: Q01DX010 (ip), vehicle: saline): 155 % of control
- T/C (dose: 18.8 mg/kg/injection, schedule: Q01DX010 (ip), vehicle: saline): 171 % of control
- T/C (dose: 37.5 mg/kg/injection, schedule: Q01DX010 (ip), vehicle: saline): 186 % of control
- T/C (dose: 75.0 mg/kg/injection, schedule: Q01DX010 (ip), vehicle: saline): 86 % of control

SMILES: CC(C)(O)/C=C/C(=O)[C@](C)(O)[C@H]1[C@H](O)C[C@@]2(C)[C@@H]3CC=C4[C@@H](C[C@H](O)C(=O)C4(C)C)[C@]3(C)C(=O)C[C@]12C
- T/C (dose: 0.2 mg/kg/injection, schedule: Q01DX009 (ip), vehicle: saline): 91 % of control
- T/C (dose: 0.4 mg/kg/injection, schedule: Q01DX009 (ip), vehicle: saline): 81 % of control
- T/C (dose: 0.8 mg/kg/injection, schedule: Q01DX009 (ip), vehicle: saline): 95 % of control

SMILES: NC(N)=NCCCC(N)C(=O)NCCCCCCNCCCCCCNC(=O)C(N)CCCN=C(N)N (stereo not drawn)
- T/C [4]: 102 % of control
- T/C [5]: 105 % of control
- T/C (dose: 20.0 mg/kg/injection, schedule: Q01DX010 (ip), vehicle: saline): 84 % of control
- T/C (dose: 40.0 mg/kg/injection, schedule: Q01DX010 (ip), vehicle: saline): 116 % of control

SMILES: CC1(O)CCC2C3CCC4=CC(=O)CCC4C3CCC21C (stereo not drawn)
- T/C (dose: 125.0 mg/kg/injection, schedule: Q01DX010 (sc), vehicle: steriod suspending solution): 83 % of control
- T/C (dose: 250.0 mg/kg/injection, schedule: Q01DX010 (sc), vehicle: steriod suspending solution): 81 % of control
- T/C (dose: 500.0 mg/kg/injection, schedule: Q01DX010 (sc), vehicle: steriod suspending solution): 80 % of control
- T/C (dose: 1000.0 mg/kg/injection, schedule: Q01DX010 (sc), vehicle: steriod suspending solution): 67 % of control

SMILES: O=C(Nc1ccc(C2=NCCN2)cc1)c1ccc(C(=O)Nc2ccc(C3=NCCN3)cc2)cc1
- T/C (dose: 16.0 mg/kg/injection, schedule: Q01DX010 (ip), vehicle: saline): 76 % of control
- T/C (dose: 32.0 mg/kg/injection, schedule: Q01DX010 (ip), vehicle: saline): 77 % of control
- T/C (dose: 64.0 mg/kg/injection, schedule: Q01DX010 (ip), vehicle: saline): 73 % of control
- T/C (dose: 128.0 mg/kg/injection, schedule: Q01DX010 (ip), vehicle: saline): 47 % of control

SMILES: C=C(C)C(=O)O[C@H]1CC2=C[C@@H](C[C@@]3(C)O[C@@H]3[C@H]3OC(=O)C(=C)[C@@H]31)OC2=O
- T/C (dose: 2.5 mg/kg/injection, schedule: Q01DX011 (sc), vehicle: saline): 94 % of control
- T/C (dose: 5.0 mg/kg/injection, schedule: Q01DX011 (sc), vehicle: saline): 73 % of control
- T/C (dose: 10.0 mg/kg/injection, schedule: Q01DX011 (sc), vehicle: saline): 116 % of control

SMILES: C[C@]12CC[C@@H]3c4ccc(O)cc4CC[C@H]3[C@@H]1CC(=O)[C@@H]2O
- T/C (dose: 12.5 mg/kg/injection, schedule: Q01DX010 (sc), vehicle: steriod suspending solution): 94 % of control and 89 % of control
- T/C [6]: 92 % of control and 96 % of control
- T/C (dose: 50.0 mg/kg/injection, schedule: Q01DX010 (sc), vehicle: steriod suspending solution): 78 % of control and 86 % of control

SMILES: Cc1cc(C(C)(C)C)ccc1O
- T/C (dose: 6.2 mg/kg/injection, schedule: Q01DX011 (ip), vehicle: carboxymethylcellulose (CMC)): 47 % of control
- T/C (dose: 12.5 mg/kg/injection, schedule: Q01DX011 (ip), vehicle: carboxymethylcellulose (CMC)): 105 % of control
- T/C (dose: 25.0 mg/kg/injection, schedule: Q01DX011 (ip), vehicle: carboxymethylcellulose (CMC)): 106 % of control

SMILES: CN(C)N=Nc1cccc([N+](=O)[O-])c1
- T/C (dose: 55.0 mg/kg/injection, schedule: Q01DX011 (ip), vehicle: saline): 82 % of control
- T/C (dose: 80.0 mg/kg/injection, schedule: Q01DX011 (ip), vehicle: saline): 188 % of control
- T/C (dose: 120.0 mg/kg/injection, schedule: Q01DX011 (ip), vehicle: saline): 89 % of control
- T/C (dose: 178.0 mg/kg/injection, schedule: Q01DX010 (ip), vehicle: saline): 49 % of control
- T/C (dose: 178.0 mg/kg/injection, schedule: Q01DX011 (ip), vehicle: saline): 113 % of control
- T/C (dose: 267.0 mg/kg/injection, schedule: Q01DX010 (ip), vehicle: saline): 74 % of control

SMILES: COc1cc2c3c(c4ccc(OC)c(OC)c4c2cc1OC)CN1CCC[C@@H]1C3
- T/C (dose: 1.25 mg/kg/injection, schedule: Q01DX010 (ip), vehicle: saline): 100 % of control and 78 % of control
- T/C [4]: 108 % of control and 87 % of control
- T/C [5]: 93 % of control and 104 % of control

SMILES: C[C@]12CCC(=O)C=C1CC[C@H]1[C@@H]3CC[C@@]4(OCC4=O)[C@@]3(C)C[C@H](O)[C@@]12F
- T/C (dose: 10.0 mg/kg/injection, schedule: Q01DX010 (sc), vehicle: steriod suspending solution): 59 % of control
- T/C (dose: 20.0 mg/kg/injection, schedule: Q01DX010 (sc), vehicle: steriod suspending solution): 43 % of control
- T/C (dose: 40.0 mg/kg/injection, schedule: Q01DX010 (sc), vehicle: steriod suspending solution): 48 % of control
- T/C (dose: 80.0 mg/kg/injection, schedule: Q01DX010 (sc), vehicle: steriod suspending solution): 16 % of control
- T/C (dose: 160.0 mg/kg/injection, schedule: Q01DX010 (sc), vehicle: steriod suspending solution): 7 % of control
- T/C (dose: 320.0 mg/kg/injection, schedule: Q01DX010 (sc), vehicle: steriod suspending solution): 1 % of control

SMILES: CN(C)[C@@H]1C(=O)C(C(N)=O)=C(O)[C@@]2(O)C(=O)C3=C(O)c4c(O)cccc4C[C@H]3C[C@@H]12
- T/C (dose: 15.0 mg/kg/injection, schedule: Q01DX010 (ip), vehicle: saline): 124 % of control
- T/C (dose: 30.0 mg/kg/injection, schedule: Q01DX010 (ip), vehicle: saline): 106 % of control

SMILES: COC1=C(N)C(=O)c2nc(-c3nc(C(=O)O)c(C)c(-c4ccc(OC)c(OC)c4O)c3N)ccc2C1=O
- T/C (dose: 0.06 mg/kg/injection, schedule: Q01DX010 (ip), vehicle: other): 45 % of control
- T/C (dose: 0.09 mg/kg/injection, schedule: Q01DX010 (ip), vehicle: other): 48 % of control
- T/C (dose: 0.13 mg/kg/injection, schedule: Q01DX010 (ip), vehicle: other): 43 % of control
- T/C (dose: 0.2 mg/kg/injection, schedule: Q01DX010 (ip), vehicle: saline): 28 % of control

SMILES: C[C@]12CC[C@@H]3c4ccc(O)cc4CC[C@H]3[C@@H]1C[C@@H](O)[C@@H]2O
- T/C (dose: 6.25 mg/kg/injection, schedule: Q01DX010 (sc), vehicle: steriod suspending solution): 73 % of control and 86 % of control
- T/C [6]: 69 % of control and 86 % of control

SMILES: CCN(CC)CCCC(C)Nc1c2ccc(Cl)cc2nc2ccc(OC)cc12 (stereo not drawn)
- T/C (dose: 12.5 mg/kg/injection, schedule: Q01DX010 (ip), vehicle: saline): 103 % of control
- T/C (dose: 25.0 mg/kg/injection, schedule: Q01DX010 (ip), vehicle: saline): 103 % of control and 88 % of control
- T/C [7]: 81 % of control and 85 % of control
- T/C [1]: 61 % of control and 64 % of control

SMILES: Nc1c(N=Nc2ccc([N+](=O)[O-])cc2)c(S(=O)(=O)O)cc2cc(S(=O)(=O)O)c(N=Nc3ccc(Sc4ccc(N=Nc5ccc(O)cc5)cc4)cc3)c(O)c12 (tested in a mixture with another compound)
- T/C [7]: 119 % of control
- T/C [1]: 76 % of control
- T/C [2]: 31 % of control
- T/C [3]: 20 % of control

SMILES: O=C(NCCCCC(NC(=O)c1ccccc1)C(=O)NCCCCCCNCCCCCCNC(=O)C(CCCCNC(=O)c1ccccc1)NC(=O)c1ccccc1)c1ccccc1 (stereo not drawn)
- T/C [7]: 98 % of control
- T/C [1]: 85 % of control
- T/C [2]: 116 % of control
- T/C [3]: 80 % of control

Source: PubChem BioAssay AID268 (DTP/NCI, 2004)
